Source: US20260315464A1, “COMPOSITIONS, METHODS, AND SYSTEMS FOR MODULATING SPLICING OF MSH3” (REVIR THERAPEUTICS, INC., priority 2023, published 2026)

Test system: MSH3
Test: QPCR assay for levels of MSH3 upon compound treatment in HEK293T or AD293 cells (fold-change of MSH3 transcript, EC50 of MSH3 downregulation; total MSH3 exons 13/14, exons 20/21; Table 8)
Assay type: cell-based
Conditions: for mrna remaining at 1 µM / mrna remaining at 10 µM: Homo sapiens, fold-change of the MSH3 transcript, normalized to GAPDH; for mrna remaining at 1 µM: 1 μM compound; for mrna remaining at 10 µM: 10 μM compound; for EC50: EC50 of MSH3 downregulation, XtalPi
Summary of the method: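 MSH3 mRNA was quantified by TaqMan qPCR covering exons 13/14, exons 20/21, exon 13/PE14A and exon 20/PE21A, with GAPDH as reference. Cells used were HEK293T or AD293, treated with compound at 1 μM and […].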

EC50	SMILES	mrna remaining at 1 µM	mrna remaining at 10 µM
–	Cc1nn(C)nc1-c1cnc2c(c1)C(=O)N(c1ccc(S[C@H]3C[C@]4(C)CC[C@](C)(C3)N4)nn1)C2 [Compound 611, 3-(2,5-dimethyl-2H-1,2,3-triazol-4-yl)-6-(6-(((1R,3s,5S)-1,5-dimethyl-8-azabicyclo[3.2.1]octan-3-yl)thio)pyridazin-3-yl)-6,7-dihydro-5H-pyrrolo[3,4-b]pyridin-5-one]	90%	79%
–	CN(c1ccc(N2Cc3ncc(-c4nnn(C)n4)cc3C2=O)nn1)[C@H]1C[C@]2(C)CC[C@](C)(C1)N2 [Compound 612, 6-(6-(((1R,3s,5S)-1,5-dimethyl-8-azabicyclo[3.2.1]octan-3-yl)(methyl)amino)pyridazin-3-yl)-3-(2-methyl-2H-tetrazol-5-yl)-6,7-dihydro-5H-pyrrolo[3,4-b]pyridin-5-one]	109%	15%
–	Cc1nn(C)nc1-c1cnc2c(c1)C(=O)N(c1ccc(N3C[C@@H](C)NC[C@@H]3C)nn1)C2 [Compound 613, 3-(2,5-dimethyl-2H-1,2,3-triazol-4-yl)-6-(6-((2S,5R)-2,5-dimethylpiperazin-1-yl)pyridazin-3-yl)-6,7-dihydro-5H-pyrrolo[3,4-b]pyridin-5-one]	130%	91%
–	C[C@@H]1CN(c2ccc(N3Cc4ncc(-c5nn(C)nc5Cl)cc4C3=O)nn2)[C@@H](C)CN1 [Compound 614, 3-(5-chloro-2-methyl-2H-1,2,3-triazol-4-yl)-6-(6-((2S,5R)-2,5-dimethylpiperazin-1-yl)pyridazin-3-yl)-6,7-dihydro-5H-pyrrolo[3,4-b]pyridin-5-one]	107%	79%
–	Cc1nn(C)nc1-c1cnc2c(c1)C(=O)N(c1ccc(N3CCN4CCC[C@H]4C3)nn1)C2 [Compound 615, (S)-3-(2,5-dimethyl-2H-1,2,3-triazol-4-yl)-6-(6-(hexahydropyrrolo[1,2-a]pyrazin-2(1H)-yl)pyridazin-3-yl)-6,7-dihydro-5H-pyrrolo[3,4-b]pyridin-5-one]	81%	53%
–	Cc1nn(C)nc1-c1cnc2c(c1)C(=O)N(c1ccc(N3CCC[C@@H](NC(C)(C)C)C3)nn1)C2 [Compound 616, (R)-6-(6-(3-(tert-butylamino)piperidin-1-yl)pyridazin-3-yl)-3-(2,5-dimethyl-2H-1,2,3-triazol-4-yl)-6,7-dihydro-5H-pyrrolo[3,4-b]pyridin-5-one]	100%	67%
–	Cn1nc(Cl)c(-c2cnc3c(c2)C(=O)N(c2ccc(N4CCC[C@@H](NC(C)(C)C)C4)nn2)C3)n1 [Compound 617, (R)-6-(6-(3-(tert-butylamino)piperidin-1-yl)pyridazin-3-yl)-3-(5-chloro-2-methyl-2H-1,2,3-triazol-4-yl)-6,7-dihydro-5H-pyrrolo[3,4-b]pyridin-5-one]	93%	70%
–	CN(C)C1CCN(c2ccc(N3Cc4ncc(-c5nn(C)nc5Cl)cc4C3=O)nn2)CC1 [Compound 618, 3-(5-chloro-2-methyl-2H-1,2,3-triazol-4-yl)-6-(6-(4-(dimethylamino)piperidin-1-yl)pyridazin-3-yl)-6,7-dihydro-5H-pyrrolo[3,4-b]pyridin-5-one]	83%	68%
–	Cn1nc(Cl)c(-c2cnc3c(c2)C(=O)N(c2ccc(OC4CC(C)(C)NC5(CCC5)C4)nn2)C3)n1 (stereo not shown) [Compound 619, 3-(5-chloro-2-methyl-2H-1,2,3-triazol-4-yl)-6-(6-((6,6-dimethyl-5-azaspiro[3.5]nonan-8-yl)oxy)pyridazin-3-yl)-6,7-dihydro-5H-pyrrolo[3,4-b]pyridin-5-one]	80%	10%
–	Cn1nc(Cl)c(-c2cnc3c(c2)C(=O)N(c2ccc(N4CCN5CCC[C@H]5C4)nn2)C3)n1 [Compound 620, (S)-3-(5-chloro-2-methyl-2H-1,2,3-triazol-4-yl)-6-(6-(hexahydropyrrolo[1,2-a]pyrazin-2(1H)-yl)pyridazin-3-yl)-6,7-dihydro-5H-pyrrolo[3,4-b]pyridin-5-one]	93%	55%
229 nM	CN(c1ccc(N2Cc3ncc(-c4nn(C)nc4Cl)cc3C2=O)nn1)C1CC(C)(C)NC2(CCC2)C1 (stereo not shown) [Compound 621, 3-(5-chloro-2-methyl-2H-1,2,3-triazol-4-yl)-6-(6-((6,6-dimethyl-5-azaspiro[3.5]nonan-8-yl)(methyl)amino)pyridazin-3-yl)-6,7-dihydro-5H-pyrrolo[3,4-b]pyridin-5-one]	–	–
–	Cc1nn(C)cc1-c1cnc2c(n1)C(=O)N(c1ccc(O[C@H]3C[C@]4(C)CC[C@](C)(C3)N4)nn1)C2 [Compound 622, 3-(1,3-dimethyl-1H-pyrazol-4-yl)-6-(6-(((1R,3s,5S)-1,5-dimethyl-8-azabicyclo[3.2.1]octan-3-yl)oxy)pyridazin-3-yl)-6,7-dihydro-5H-pyrrolo[3,4-b]pyrazin-5-one]	76%	30%
2990 nM	Cc1nn(C)nc1-c1cnc2c(n1)C(=O)N(c1ccc(O[C@H]3C[C@]4(C)CC[C@](C)(C3)N4)nn1)C2 [Compound 623, 3-(2,5-dimethyl-2H-1,2,3-triazol-4-yl)-6-(6-(((1R,3s,5S)-1,5-dimethyl-8-azabicyclo[3.2.1]octan-3-yl)oxy)pyridazin-3-yl)-6,7-dihydro-5H-pyrrolo[3,4-b]pyrazin-5-one]	60%	13%
–	Cc1nn(C)nc1-c1cnc2c(n1)C(=O)N(c1ccc(OC3CC(C)(C)NC(C)(C)C3)nn1)C2 [Compound 624, 3-(2,5-dimethyl-2H-1,2,3-triazol-4-yl)-6-(6-((2,2,6,6-tetramethylpiperidin-4-yl)oxy)pyridazin-3-yl)-6,7-dihydro-5H-pyrrolo[3,4-b]pyrazin-5-one]	60%	12%
–	CN(c1ccc(N2Cc3ncc(-c4cnn(CC(C)(C)O)c4)nc3C2=O)nn1)[C@H]1C[C@]2(C)CC[C@](C)(C1)N2 [Compound 625, 6-(6-(((1R,3s,5S)-1,5-dimethyl-8-azabicyclo[3.2.1]octan-3-yl)(methyl)amino)pyridazin-3-yl)-3-(1-(2-hydroxy-2-methylpropyl)-1H-pyrazol-4-yl)-6,7-dihydro-5H-pyrrolo[3,4-b]pyrazin-5-one]	81%	108%
–	CN(c1ccc(N2Cc3ncc(-c4nn(C)nc4Cl)nc3C2=O)nn1)C1CC(C)(C)NC2(CCC2)C1 (stereo not shown) [Compound 626, 3-(5-chloro-2-methyl-2H-1,2,3-triazol-4-yl)-6-(6-((6,6-dimethyl-5-azaspiro[3.5]nonan-8-yl)(methyl)amino)pyridazin-3-yl)-6,7-dihydro-5H-pyrrolo[3,4-b]pyrazin-5-one]	98%	28%
–	CN(c1ccc(N2Cc3ncc(-c4nn(C)nc4Cl)nc3C2=O)nn1)[C@H]1C[C@]2(C)CC[C@](C)(C1)N2 [Compound 627, 3-(5-chloro-2-methyl-2H-1,2,3-triazol-4-yl)-6-(6-(((1R,3s,5S)-1,5-dimethyl-8-azabicyclo[3.2.1]octan-3-yl)(methyl)amino)pyridazin-3-yl)-6,7-dihydro-5H-pyrrolo[3,4-b]pyrazin-5-one]	37%	11%
–	Cn1nc(Cl)c(-c2cnc3c(n2)C(=O)N(c2ccc(OC4CC(C)(C)NC5(CCC5)C4)nn2)C3)n1 (stereo not shown) [Compound 628, 3-(5-chloro-2-methyl-2H-1,2,3-triazol-4-yl)-6-(6-((6,6-dimethyl-5-azaspiro[3.5]nonan-8-yl)oxy)pyridazin-3-yl)-6,7-dihydro-5H-pyrrolo[3,4-b]pyrazin-5-one]	101%	20%
–	CC(C)[C@H]1CN(c2ccc(N3Cc4c(F)cc(-c5cnn(C)n5)cc4C3=O)nn2)CCN1 [Compound 629, (S)-4-fluoro-2-(6-(3-isopropylpiperazin-1-yl)pyridazin-3-yl)-6-(2-methyl-2H-1,2,3-triazol-4-yl)isoindolin-1-one]	74%	62%
–	Cn1ncc(-c2cc(F)c3c(c2)C(=O)N(c2ccc(N4CCN[C@@H](C(C)(C)C)C4)nn2)C3)n1 [Compound 630, (S)-2-(6-(3-(tert-butyl)piperazin-1-yl)pyridazin-3-yl)-4-fluoro-6-(2-methyl-2H-1,2,3-triazol-4-yl)isoindolin-1-one]	106%	72%
–	Cn1ncc(-c2cc(F)c3c(c2)C(=O)N(c2ccc(O[C@H]4C[C@]5(C)CC[C@](C)(C4)N5)nn2)C3)n1 [Compound 631, 2-(6-(((1R,3s,5S)-1,5-dimethyl-8-azabicyclo[3.2.1]octan-3-yl)oxy)pyridazin-3-yl)-4-fluoro-6-(2-methyl-2H-1,2,3-triazol-4-yl)isoindolin-1-one]	86%	69%
–	CN(c1ccc(N2Cc3c(F)cc(-c4cnn(CC(C)(C)O)c4)cc3C2=O)nn1)[C@H]1C[C@]2(C)CC[C@](C)(C1)N2 [Compound 632, 2-(6-(((1R,3s,5S)-1,5-dimethyl-8-azabicyclo[3.2.1]octan-3-yl)(methyl)amino)pyridazin-3-yl)-4-fluoro-6-(1-(2-hydroxy-2-methylpropyl)-1H-pyrazol-4-yl)isoindolin-1-one]	72%	57%
–	CN(c1ccc(N2Cc3c(F)cc(-c4cnn(CC(C)(C)O)n4)cc3C2=O)nn1)C1CC(C)(C)NC(C)(C)C1 [Compound 633, 4-fluoro-6-(2-(2-hydroxy-2-methylpropyl)-2H-1,2,3-triazol-4-yl)-2-(6-(methyl(2,2,6,6-tetramethylpiperidin-4-yl)amino)pyridazin-3-yl)isoindolin-1-one]	109%	89%
